{"source": "patent US5731343A", "about": "(The Scripps Research Institute, priority 1995, dated 1998)", "key": {"[1]": {"system": "mitogen activated protein kinases (MAPK-1, MAPK-2 and p38)", "details": "4 hours pretreatment; LPS (1 μg/ml); RAW 264.7"}, "COX-2 mRNA": {"system": "COX-2 mRNA", "test": "cells", "details": "Rattus norvegicus, Macrophage, 2 h, read-out: inhibition of COX-2 mRNA levels"}, "p60^v-src [2]": {"system": "p60^v-src", "details": "cited from earlier work"}, "tumor cells": {"system": "tumor cells", "details": "U.S. Pat. Nos. 3,428,526 and 4,228,079; cited from earlier work"}, "p60^c-src": {"target": "p60^c-src (Homo sapiens, UniProt P12931)", "sequence (P12931 whole entry)": "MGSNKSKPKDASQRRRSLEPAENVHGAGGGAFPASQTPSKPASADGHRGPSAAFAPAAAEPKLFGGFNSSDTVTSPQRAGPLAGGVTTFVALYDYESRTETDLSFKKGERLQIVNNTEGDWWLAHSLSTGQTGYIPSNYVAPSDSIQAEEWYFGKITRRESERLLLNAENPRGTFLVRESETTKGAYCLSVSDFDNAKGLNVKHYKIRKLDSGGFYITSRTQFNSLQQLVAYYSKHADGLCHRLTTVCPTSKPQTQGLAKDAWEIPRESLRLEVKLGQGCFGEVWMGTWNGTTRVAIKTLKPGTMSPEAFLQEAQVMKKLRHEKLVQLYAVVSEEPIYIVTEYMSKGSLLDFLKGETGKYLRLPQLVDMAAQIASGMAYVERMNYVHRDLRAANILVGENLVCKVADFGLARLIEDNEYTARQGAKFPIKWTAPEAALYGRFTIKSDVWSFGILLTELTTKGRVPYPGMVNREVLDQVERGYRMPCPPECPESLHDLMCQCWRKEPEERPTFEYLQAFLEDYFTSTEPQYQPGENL"}, "endogenous COX": {"target": "T1, endogenous COX (Rattus norvegicus, UniProt Q63921)", "T1 construct": "endogenous in cells; host or cells: alveolar macrophages of Sprague-Dawley rats (bronchoalveolar lavage)", "T1 sequence (Q63921 27-602)": "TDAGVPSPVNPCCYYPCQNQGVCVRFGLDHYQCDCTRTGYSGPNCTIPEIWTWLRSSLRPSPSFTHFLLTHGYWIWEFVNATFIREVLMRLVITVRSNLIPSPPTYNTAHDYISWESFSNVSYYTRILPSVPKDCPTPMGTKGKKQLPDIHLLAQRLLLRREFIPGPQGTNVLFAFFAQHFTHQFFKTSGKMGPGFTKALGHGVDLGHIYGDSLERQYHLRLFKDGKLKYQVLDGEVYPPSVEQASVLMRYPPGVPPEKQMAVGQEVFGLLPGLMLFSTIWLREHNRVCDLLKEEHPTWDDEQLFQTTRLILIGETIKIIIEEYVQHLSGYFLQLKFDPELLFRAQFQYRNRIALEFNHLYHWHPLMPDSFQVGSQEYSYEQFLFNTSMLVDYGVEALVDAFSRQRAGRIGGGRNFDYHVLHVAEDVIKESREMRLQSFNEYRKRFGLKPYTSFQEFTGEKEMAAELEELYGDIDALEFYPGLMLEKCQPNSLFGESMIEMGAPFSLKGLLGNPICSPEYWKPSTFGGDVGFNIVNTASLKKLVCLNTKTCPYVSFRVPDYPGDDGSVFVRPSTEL", "test": "Inactivation of endogenous COX activity in macrophages by aspirin", "assay_type": "cell-based", "details": "aspirin 500 μM, 2.5 hours", "from_the_text": "In the previous study using the same cell type, it was shown that increased COX activity in LPS-stimulated macrophages which were pretreated with aspirin, results from selective expression of COX-2 (Lee, et al., supra). Therefore, de novo synthesized COX-2 in aspirin-pretreated macrophages can be accurately and conveniently quantitated by measuring recovered COX activity."}, "COX-2": {"system": "COX-2", "test": "Recovery of COX activity (COX-2 expression) in aspirin-pretreated rat alveolar macrophages", "assay_type": "cell-based", "details": "read-out: IC50 suppression of LPS-induced expression of COX-2"}, "[3]": {"system": "murine resident peritoneal macrophages", "details": "stimulated with zymosan, calcium ionophore A23187, and PMA; Glaser et al.; cited from earlier work"}, "cyclooxygenase": {"system": "cyclooxygenase", "details": "intact macrophages; Glaser et al. 1993; cited from earlier work"}, "[4]": {"system": "tyrosine phosphorylated proteins (Src family tyrosine kinases)", "test": "Antiphosphotyrosine immunoblotting of LPS-stimulated macrophages", "assay_type": "cell-based", "details": "4 hours pretreatment; LPS (10 μg/ml); rat alveolar macrophages"}, "p53/56^lyn": {"system": "p53/56^lyn", "test": "Western blot analysis of p53/56^lyn in LPS-stimulated macrophages", "assay_type": "cell-based, rat", "details": "4 hours pretreatment; LPS (10 μg/ml)"}, "p60^v-src [5]": {"system": "p60^v-src", "details": "Uehara et al. 1989; cited from earlier work"}, "RAW 264.7": {"system": "RAW 264.7", "details": "Weinstein et al., cited from earlier work"}, "c-raf": {"system": "c-raf", "details": "human T cells; June et al. 1990; cited from earlier work"}}, "note": "Read-outs that look alike come from different tables or passages of the source."}
{"smiles": "C[C@@H]1C[C@H]2O[C@@H]2/C=C\\C=C\\C(=O)Cc2c(Cl)c(O)cc(O)c2C(=O)O1", "note": "[Radicicol, 5-chloro-6-(7,8-epoxy-10-hydroxy-2-oxo-3,5-undecadienyl)-β-resorcyclic acid μ-lactone]", "values": [{"measurement": "inhibition of tyrosine phosphorylation of MAPKs", "setting": "[1]", "value": "inhibited tyrosine phosphorylation of MAPKs in a dose dependent fashion"}, {"measurement": "inhibition at 1 µg/mL", "setting": "COX-2 mRNA", "value": 50, "unit": "%"}, {"measurement": "inhibition of p60^v-src", "setting": "p60^v-src [2]; Kwon et al. 1992", "value": "inhibitor of p60^v-src"}, {"measurement": "inhibitory effect in vitro on the growth of tumor cells", "setting": "tumor cells", "value": "strong inhibitory effect"}, {"measurement": "IC50", "setting": "p60^c-src", "value": 8.2, "unit": "µM"}]}
{"smiles": "CC(=O)Oc1ccccc1C(=O)O", "note": "[aspirin]", "values": [{"measurement": "inhibition at 500 µM", "setting": "endogenous COX", "value": "> 90", "unit": "%"}]}
{"smiles": "O=c1c(-c2ccc(O)cc2)coc2cc(O)cc(O)c12", "note": "[genistein]", "values": [{"measurement": "IC50", "setting": "COX-2", "value": 22, "unit": "µM"}, {"measurement": "PGE2 production", "setting": "[3]", "value": "inhibited"}, {"measurement": "inhibitory effect on cyclooxygenase activity", "setting": "cyclooxygenase", "value": "no inhibitory effect"}]}
{"smiles": "CO[C@H]1[C@@H](OC)C[C@H](C)[C@@H](OC)C2=CC(=O)C=C(NC(=O)/C(C)=C/C=C\\[C@H](OC)[C@@H](OC(N)=O)/C(C)=C/[C@@H]1C)C2=O", "note": "[herbimycin A]", "values": [{"measurement": "levels of tyrosine phosphorylated proteins", "setting": "[4]", "value": "suppressed levels of tyrosine phosphorylated proteins"}, {"measurement": "levels of p53/56^lyn", "setting": "p53/56^lyn", "value": "significant reduction levels of p53/56^lyn"}, {"measurement": "IC50", "setting": "COX-2", "value": 0.052, "unit": "µM"}, {"measurement": "IC50", "setting": "p60^v-src [2]; Uehara et al. 1989, read-out: IC50 in vitro kinase activity", "value": 12, "unit": "µM"}, {"measurement": "inhibitory effect on p60^v-src kinase activity in presence of sulfhydryl compounds", "setting": "p60^v-src [2]; sulfhydryl compounds", "value": "abolished"}, {"measurement": "degradation of p60^v-src", "setting": "p60^v-src [5]", "value": "increased the degradation"}, {"measurement": "LPS-induced release of [^3 H]-arachidonic acid metabolites", "setting": "RAW 264.7; LPS", "value": "dramatically inhibits"}, {"measurement": "PMA-induced release of [^3 H]-arachidonic acid metabolites", "setting": "RAW 264.7; PMA", "value": "only weakly inhibits"}, {"measurement": "PMA-stimulated c-raf activity", "setting": "c-raf", "value": "resistant to the inhibitory effects"}]}
{"smiles": "N#CC(=Cc1ccc(O)c(O)c1)C(=O)Nc1ccccc1", "note": "[tryphostin (AG-494)]", "values": [{"measurement": "IC50", "setting": "COX-2; LPS", "value": 357, "unit": "µM"}]}
{"smiles": "N#CC(C#N)=Cc1cc(O)c(O)c(O)c1", "note": "[tyrphostin-25]", "values": [{"measurement": "PGE2 production", "setting": "[3]", "value": "inhibited"}, {"measurement": "inhibitory effect on cyclooxygenase activity", "setting": "cyclooxygenase", "value": "no inhibitory effect"}]}
